# Measured values published in paper PMC6917776, “Discovery of a chemical probe for PRDM9” (Nature Communications, 2019).
# Where two headings read alike, the source gives them in different places.
# Experiments:
# Assay in all cases: Methyltransferase selectivity assay (SPA)
# Type in all cases: biochemical
# PRMT4 = target: T1, PRMT4 (Homo sapiens, UniProt Q86X55)
# T1 construct: purchased Structural Genomics Consortium (SGC Toronto) in-house methyltransferase panel
# T1 sequence (Q86X55 1-608): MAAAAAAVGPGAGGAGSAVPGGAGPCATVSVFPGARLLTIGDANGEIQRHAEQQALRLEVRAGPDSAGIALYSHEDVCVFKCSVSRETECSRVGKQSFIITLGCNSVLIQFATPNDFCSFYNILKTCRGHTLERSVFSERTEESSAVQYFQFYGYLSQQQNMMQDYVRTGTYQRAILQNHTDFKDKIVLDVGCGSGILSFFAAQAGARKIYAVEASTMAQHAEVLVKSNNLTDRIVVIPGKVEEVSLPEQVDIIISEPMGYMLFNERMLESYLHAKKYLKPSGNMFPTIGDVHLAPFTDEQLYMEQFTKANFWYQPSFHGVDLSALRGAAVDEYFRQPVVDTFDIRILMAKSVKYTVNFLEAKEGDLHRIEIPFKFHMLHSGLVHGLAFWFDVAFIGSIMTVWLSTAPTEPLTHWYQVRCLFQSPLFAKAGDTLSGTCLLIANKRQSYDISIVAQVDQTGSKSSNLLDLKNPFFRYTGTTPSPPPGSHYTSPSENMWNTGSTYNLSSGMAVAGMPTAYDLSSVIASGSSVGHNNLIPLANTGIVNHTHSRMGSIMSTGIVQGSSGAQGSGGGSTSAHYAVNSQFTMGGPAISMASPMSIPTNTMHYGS
# Method: (§1) Selectivity against methyltransferases were determined as described previously. Details of the assays are described in the supplementary methods.
# (§2) Methyltransferase selectivity assay1
# (§3) The effect of chemical probes and negative controls on the methyltransferase activities of protein, DNA and RNA methyltransferases was tested by radiometric assays using 3H-SAM. For proteins such as MLL1 trimeric, MLL3 pentameric, EZH1 (PRC2) pentameric, and EZH2 (PRC2) trimeric complexes, as well as G9a, GLP, SUV39H1, SUV39H2, SUV420H1, SUV420H2, SETD2, SETD8, SETDB1, SETD7, PRMT1, PRMT3, PRMT4, PRMT5/ MEP50 complex, PRMT6, PRMT7, PRMT8, PRMT9, PRDM9, SMYD2, SMYD3, DNMT1, and BCDIN3D the incorporation of a tritium-labeled methyl group into biotinylated substrate was monitored using scintillation proximity assay (SPA). Briefly, a 10 µL reaction containing 3H-SAM and substrate at concentrations close to the apparent Km values for each enzyme (balanced conditions) was prepared. The reactions were quenched with 10 µL of 7.5 M guanidine hydrochloride; 180 µL of 20 mM Tris buffer (pH 8.0) were added, and the mixture was transferred to a 96-well FlashPlate and incubated for 1 h. The counts per minute (CPM) was measured on a TopCount plate reader. The CPM in the absence of compound or enzyme was defined as 100% activity and background (0%), respectively, for each dataset. […]
# SUV420H2 = target: T2, SUV420H2 (Homo sapiens, UniProt Q86Y97)
# T2 construct: purchased Structural Genomics Consortium (SGC Toronto) in-house methyltransferase panel
# T2 sequence (Q86Y97 whole entry): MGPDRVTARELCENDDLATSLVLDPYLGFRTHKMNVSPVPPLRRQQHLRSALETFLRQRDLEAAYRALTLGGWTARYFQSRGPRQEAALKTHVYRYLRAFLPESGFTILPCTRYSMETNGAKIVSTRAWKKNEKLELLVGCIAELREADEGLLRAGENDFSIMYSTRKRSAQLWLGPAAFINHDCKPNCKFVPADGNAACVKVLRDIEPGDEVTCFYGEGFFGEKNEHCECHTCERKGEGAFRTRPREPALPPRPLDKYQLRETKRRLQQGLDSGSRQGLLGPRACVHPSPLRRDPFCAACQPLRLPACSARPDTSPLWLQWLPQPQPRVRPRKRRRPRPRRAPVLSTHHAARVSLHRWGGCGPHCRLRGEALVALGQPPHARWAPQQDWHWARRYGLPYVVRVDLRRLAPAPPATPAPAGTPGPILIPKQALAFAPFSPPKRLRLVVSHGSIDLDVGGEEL
# Method: as §1, §2, §3
# GLP = target: T3, GLP (Homo sapiens, UniProt Q9H9B1); details: EHMT1, Exp1, Exp2
# T3 construct: purchased Structural Genomics Consortium (SGC Toronto) in-house methyltransferase panel
# T3 sequence (Q9H9B1 1-1298): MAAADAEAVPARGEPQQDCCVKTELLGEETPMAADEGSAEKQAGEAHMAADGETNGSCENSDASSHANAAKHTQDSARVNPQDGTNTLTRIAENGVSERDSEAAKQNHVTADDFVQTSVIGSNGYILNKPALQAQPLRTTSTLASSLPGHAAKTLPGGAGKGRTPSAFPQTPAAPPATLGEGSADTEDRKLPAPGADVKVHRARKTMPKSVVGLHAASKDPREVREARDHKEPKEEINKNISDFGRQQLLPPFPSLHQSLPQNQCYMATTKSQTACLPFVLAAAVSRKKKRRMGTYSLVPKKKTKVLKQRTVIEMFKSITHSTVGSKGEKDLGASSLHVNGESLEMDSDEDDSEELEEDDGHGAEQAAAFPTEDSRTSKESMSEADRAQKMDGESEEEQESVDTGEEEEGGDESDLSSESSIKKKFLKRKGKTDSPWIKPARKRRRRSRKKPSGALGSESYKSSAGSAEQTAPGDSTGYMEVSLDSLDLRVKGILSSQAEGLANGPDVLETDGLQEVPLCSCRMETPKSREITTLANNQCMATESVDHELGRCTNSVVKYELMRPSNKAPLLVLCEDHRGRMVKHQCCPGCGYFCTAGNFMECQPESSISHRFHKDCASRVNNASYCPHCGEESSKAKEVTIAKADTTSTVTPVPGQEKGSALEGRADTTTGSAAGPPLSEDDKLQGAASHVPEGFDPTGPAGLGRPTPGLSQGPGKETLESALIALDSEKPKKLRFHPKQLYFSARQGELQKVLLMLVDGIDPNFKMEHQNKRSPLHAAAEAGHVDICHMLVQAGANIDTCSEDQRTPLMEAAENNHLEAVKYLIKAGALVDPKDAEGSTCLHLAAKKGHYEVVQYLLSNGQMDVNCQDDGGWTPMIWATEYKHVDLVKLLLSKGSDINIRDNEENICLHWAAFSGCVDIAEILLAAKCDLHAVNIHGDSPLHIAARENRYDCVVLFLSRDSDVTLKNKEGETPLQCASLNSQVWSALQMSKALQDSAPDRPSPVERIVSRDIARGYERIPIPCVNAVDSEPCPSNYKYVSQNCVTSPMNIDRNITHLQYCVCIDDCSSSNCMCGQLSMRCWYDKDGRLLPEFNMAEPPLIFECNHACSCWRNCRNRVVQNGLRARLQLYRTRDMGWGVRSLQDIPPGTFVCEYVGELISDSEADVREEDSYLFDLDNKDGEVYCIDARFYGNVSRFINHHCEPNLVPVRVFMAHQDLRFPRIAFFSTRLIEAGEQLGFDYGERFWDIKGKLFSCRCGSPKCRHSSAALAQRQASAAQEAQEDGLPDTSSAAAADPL
# Method: as §1, §2, §3
# PRMT8 = target: T4, PRMT8 (Homo sapiens, UniProt Q9NR22); details: for activity at 1 µM / Activity %: 1µM compound; for Activity %: Exp1, Exp2, 1 µM; for activity at 10 µM: 10µM compound
# T4 construct: purchased Structural Genomics Consortium (SGC Toronto) in-house methyltransferase panel
# T4 sequence (Q9NR22 whole entry): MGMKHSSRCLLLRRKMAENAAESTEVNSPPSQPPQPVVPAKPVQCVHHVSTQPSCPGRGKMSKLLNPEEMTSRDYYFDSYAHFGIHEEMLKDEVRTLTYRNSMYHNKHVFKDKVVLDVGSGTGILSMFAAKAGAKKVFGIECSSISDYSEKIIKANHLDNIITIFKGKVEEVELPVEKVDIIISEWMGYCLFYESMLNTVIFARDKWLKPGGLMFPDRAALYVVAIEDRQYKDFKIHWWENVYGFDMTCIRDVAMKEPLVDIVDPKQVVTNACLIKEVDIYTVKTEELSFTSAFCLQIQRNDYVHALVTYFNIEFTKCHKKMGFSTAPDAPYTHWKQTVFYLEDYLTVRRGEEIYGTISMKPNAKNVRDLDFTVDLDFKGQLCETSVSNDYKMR
# Method: as §1, §2, §3
# [1] = 10µM compound, Exp1, Exp2, 10 µM
# [2] = 1µM compound, Exp1, Exp2, read-out: Activity %
# [3] = 10µM compound, Exp1, Exp2, read-out: Activity %
# [4] = Exp1, Exp2, read-out: Activity %
smiles,measurement,setting,value
COc1cc(OC)cc(-c2noc(N3CCN(C)C4(CCN(c5ccccc5)CC4)C3)n2)c1 [MRK-740 -NC],activity at 1 µM,"PRMT4; 1µM compound, Exp1, Exp2",108%
same,Activity %,"PRMT4; 1µM compound, Exp1, Exp2, 1 µM",89%
same,activity at 10 µM,"PRMT4; 10µM compound, Exp1, Exp2",87%
same,Activity %,PRMT4; [1],89%
same,activity at 1 µM,"SUV420H2; 1µM compound, Exp1, Exp2",106%
same,activity at 10 µM,"SUV420H2; 10µM compound, Exp1, Exp2",98%
same,Activity %,SUV420H2; [1],103%
same,activity at 1 µM,GLP; 1µM compound,100%
same,activity at 10 µM,GLP; 10µM compound,95%
same,Activity %,"GLP; 10µM compound, 10 µM",98%
same,activity at 1 µM,"PRMT8; Exp1, Exp2",97%
same,Activity %,PRMT8,104%
same,activity at 10 µM,"PRMT8; Exp1, Exp2",98%
COc1cc(OC)cc(-c2noc(N3CCN(C)C4(CCN(c5ccnc(C)c5)CC4)C3)n2)c1 [MRK-740],Activity %,"PRMT4; 1µM compound, Exp1, Exp2, 1 µM",98%
same,activity at 1 µM,PRMT4; [2],101%
same,Activity %,PRMT4; [1],99%
same,activity at 10 µM,PRMT4; [3],96%
same,Activity %,"SUV420H2; 1µM compound, Exp1, Exp2, 1 µM",95%
same,activity at 1 µM,SUV420H2; [2],97%
same,Activity %,SUV420H2; [1],103%
same,activity at 10 µM,SUV420H2; [3],100%
same,Activity %,"GLP; 1µM compound, 1 µM",100%
same,activity at 1 µM,"GLP; 1µM compound, read-out: Activity %",93%
same,Activity %,"GLP; 10µM compound, 10 µM",84%
same,activity at 10 µM,"GLP; 10µM compound, read-out: Activity %",94%
same,Activity %,PRMT8,95%
same,activity at 1 µM,PRMT8; [4],104%
same,activity at 10 µM,PRMT8; [4],105%
